Assays:
Experiment in all cases: CETSA-MS, MDA-MB-231 intact cells
Format in all cases: cell-based
Conditions in all cases: 2 μM and 20 μM
ACAA1 = target: T1, ACAA1 (Homo sapiens, UniProt P09110)
T1 construct: endogenous in cells; host or cells: MDA-MB-231
Method in brief: (§1)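 Using whole MDA-MB-231 cells, treatment was followed by washing and graded heating. Centrifuged lysate supernatants were denatured, acetone-pelleted, digested and labeled; MS proteomics measured remaining soluble protein per temperature.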

ADAR = target: T2, ADAR (Homo sapiens, UniProt P55265)
T2 construct: endogenous in cells; host or cells: MDA-MB-231
Method in brief: as §1

AIFM2 = target: T3, AIFM2 (Homo sapiens, UniProt Q9BRQ8)
T3 construct: endogenous in cells; host or cells: MDA-MB-231
Method in brief: as §1

AP2M1 = target: T4, AP2M1 (Homo sapiens, UniProt Q96CW1)
T4 construct: endogenous in cells; host or cells: MDA-MB-231
Method in brief: as §1

APP = target: T5, APP (Homo sapiens, UniProt P05067)
T5 construct: endogenous in cells; host or cells: MDA-MB-231
Method in brief: as §1

BMP2K = target: T6, BMP2K (Homo sapiens, UniProt Q9NSY1)
T6 construct: endogenous in cells; host or cells: MDA-MB-231
Method in brief: as §1

BOD1L1 = target: T7, BOD1L1 (Homo sapiens, UniProt Q8NFC6)
T7 construct: endogenous in cells; host or cells: MDA-MB-231
Method in brief: as §1

CCN1 = target: T8, CCN1 (Homo sapiens, UniProt O00622)
T8 construct: endogenous in cells; host or cells: MDA-MB-231
Method in brief: as §1

CDKN1A = target: T9, CDKN1A (Homo sapiens, UniProt P38936)
T9 construct: endogenous in cells; host or cells: MDA-MB-231
Method in brief: as §1

DNAJC13 = target: T10, DNAJC13 (Homo sapiens, UniProt O75165)
T10 construct: 148 targets unique to Compound 1 in MDA-MB-231 intact cells; endogenous in cells; host or cells: MDA-MB-231
Method in brief: as §1

FASTKD5 = target: T11, FASTKD5 (Homo sapiens, UniProt Q7L8L6)
T11 construct: 148 targets unique to Compound 1 in MDA-MB-231 intact cells; endogenous in cells; host or cells: MDA-MB-231
Method in brief: as §1

GCAT = target: T12, GCAT (Homo sapiens, UniProt O75600)
T12 construct: 148 targets unique to Compound 1 in MDA-MB-231 intact cells; endogenous in cells; host or cells: MDA-MB-231
Method in brief: as §1

HNRNPA3 = target: T13, HNRNPA3 (Homo sapiens, UniProt P51991)
T13 construct: 148 targets unique to Compound 1 in MDA-MB-231 intact cells; endogenous in cells; host or cells: MDA-MB-231
Method in brief: as §1

HNRNPUL2 = target: T14, HNRNPUL2 (Homo sapiens, UniProt Q1KMD3)
T14 construct: endogenous in cells; host or cells: MDA-MB-231
Method in brief: as §1

HSPG2 = target: T15, HSPG2 (Homo sapiens, UniProt P98160)
T15 construct: endogenous in cells; host or cells: MDA-MB-231
Method in brief: as §1

IGFBP4 = target: T16, IGFBP4 (Homo sapiens, UniProt P22692)
T16 construct: endogenous in cells; host or cells: MDA-MB-231
Method in brief: as §1

ILF3 = target: T17, ILF3 (Homo sapiens, UniProt Q12906)
T17 construct: endogenous in cells; host or cells: MDA-MB-231
Method in brief: as §1

LAMA5 = target: T18, LAMA5 (Homo sapiens, UniProt O15230)
T18 construct: endogenous in cells; host or cells: MDA-MB-231
Method in brief: as §1

LMAN2 = target: T19, LMAN2 (Homo sapiens, UniProt Q12907)
T19 construct: endogenous in cells; host or cells: MDA-MB-231
Method in brief: as §1

LTBP2 = target: T20, LTBP2 (Homo sapiens, UniProt Q14767)
T20 construct: endogenous in cells; host or cells: MDA-MB-231
Method in brief: as §1

MAP2K5 = target: T21, MAP2K5 (Homo sapiens, UniProt Q13163)
T21 construct: endogenous in cells; host or cells: MDA-MB-231
Method in brief: as §1

MRC2 = target: T22, MRC2 (Homo sapiens, UniProt Q9UBG0)
T22 construct: endogenous in cells; host or cells: MDA-MB-231
Method in brief: as §1

NAPG = target: T23, NAPG (Homo sapiens, UniProt Q99747)
T23 construct: endogenous in cells; host or cells: MDA-MB-231
Method in brief: as §1

PIK3C3 = target: T24, PIK3C3 (Homo sapiens, UniProt Q8NEB9)
T24 construct: endogenous in cells; host or cells: MDA-MB-231
Method in brief: as §1

PIP4P2 = target: T25, PIP4P2 (Homo sapiens, UniProt Q8N4L2)
T25 construct: endogenous in cells; host or cells: MDA-MB-231
Method in brief: as §1

PRPF4B = target: T26, PRPF4B (Homo sapiens, UniProt Q13523)
T26 construct: endogenous in cells; host or cells: MDA-MB-231
Method in brief: as §1

PTX3 = target: T27, PTX3 (Homo sapiens, UniProt P26022)
T27 construct: endogenous in cells; host or cells: MDA-MB-231
Method in brief: as §1

RIPK 1 = target: T28, RIPK 1 (Homo sapiens, UniProt Q13546)
T28 construct: endogenous in cells; host or cells: MDA-MB-231
Method in brief: as §1

RNF5 = target: T29, RNF5 (Homo sapiens, UniProt Q99942)
T29 construct: endogenous in cells; host or cells: MDA-MB-231
Method in brief: as §1

RRAS2 = target: T30, RRAS2 (Homo sapiens, UniProt P62070)
T30 construct: endogenous in cells; host or cells: MDA-MB-231
Method in brief: as §1

RSF1 = target: T31, RSF1 (Homo sapiens, UniProt Q96T23)
T31 construct: endogenous in cells; host or cells: MDA-MB-231
Method in brief: as §1

SCP2 = target: T32, SCP2 (Homo sapiens, UniProt P22307)
T32 construct: endogenous in cells; host or cells: MDA-MB-231
Method in brief: as §1

SMAD1 = target: T33, SMAD1 (Homo sapiens, UniProt Q15797)
T33 construct: endogenous in cells; host or cells: MDA-MB-231
Method in brief: as §1

SMU1 = target: T34, SMU1 (Homo sapiens, UniProt Q2TAY7)
T34 construct: endogenous in cells; host or cells: MDA-MB-231
Method in brief: as §1

WTAP = target: T35, WTAP (Homo sapiens, UniProt Q15007)
T35 construct: endogenous in cells; host or cells: MDA-MB-231
Method in brief: as §1

ZNF608 = target: T36, ZNF608 (Homo sapiens, UniProt Q9ULD9)
T36 construct: endogenous in cells; host or cells: MDA-MB-231
Method in brief: as §1

T1 sequence (P09110 27-424): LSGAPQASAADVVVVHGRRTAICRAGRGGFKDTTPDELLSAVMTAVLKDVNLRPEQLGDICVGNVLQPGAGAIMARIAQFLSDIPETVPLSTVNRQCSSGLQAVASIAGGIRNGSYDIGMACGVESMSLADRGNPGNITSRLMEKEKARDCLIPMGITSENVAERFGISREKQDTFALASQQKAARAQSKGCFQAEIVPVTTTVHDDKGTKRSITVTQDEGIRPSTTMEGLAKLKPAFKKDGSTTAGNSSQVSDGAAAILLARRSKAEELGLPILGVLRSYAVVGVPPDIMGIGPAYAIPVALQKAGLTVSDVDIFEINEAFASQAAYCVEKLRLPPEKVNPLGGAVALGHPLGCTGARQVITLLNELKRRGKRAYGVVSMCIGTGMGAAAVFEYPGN
T26 sequence (Q13523 whole entry): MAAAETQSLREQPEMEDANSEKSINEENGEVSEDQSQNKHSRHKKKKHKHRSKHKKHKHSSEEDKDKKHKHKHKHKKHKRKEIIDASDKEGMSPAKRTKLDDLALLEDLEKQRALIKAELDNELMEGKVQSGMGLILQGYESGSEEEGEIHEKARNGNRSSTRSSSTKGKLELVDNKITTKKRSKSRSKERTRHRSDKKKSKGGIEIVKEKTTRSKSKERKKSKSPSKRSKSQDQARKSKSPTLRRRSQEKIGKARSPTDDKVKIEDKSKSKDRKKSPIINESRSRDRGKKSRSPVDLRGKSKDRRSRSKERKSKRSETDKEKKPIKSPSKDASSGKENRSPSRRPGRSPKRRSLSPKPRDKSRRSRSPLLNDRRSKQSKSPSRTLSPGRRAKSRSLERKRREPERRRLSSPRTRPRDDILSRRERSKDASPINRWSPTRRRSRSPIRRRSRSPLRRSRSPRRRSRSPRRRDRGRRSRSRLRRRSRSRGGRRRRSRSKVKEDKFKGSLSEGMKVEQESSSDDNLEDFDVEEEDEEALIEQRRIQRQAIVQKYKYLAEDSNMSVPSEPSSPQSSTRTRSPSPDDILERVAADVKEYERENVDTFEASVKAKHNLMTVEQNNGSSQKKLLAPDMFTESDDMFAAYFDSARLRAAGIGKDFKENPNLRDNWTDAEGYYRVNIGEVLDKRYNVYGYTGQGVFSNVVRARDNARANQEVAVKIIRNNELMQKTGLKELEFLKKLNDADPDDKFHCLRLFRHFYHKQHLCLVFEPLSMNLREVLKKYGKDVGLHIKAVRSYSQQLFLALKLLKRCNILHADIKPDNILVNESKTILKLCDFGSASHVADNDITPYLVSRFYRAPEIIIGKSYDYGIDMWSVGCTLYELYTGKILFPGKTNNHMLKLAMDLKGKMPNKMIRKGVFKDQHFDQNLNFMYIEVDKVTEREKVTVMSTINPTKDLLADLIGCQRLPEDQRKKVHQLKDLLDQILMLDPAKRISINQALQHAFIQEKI
T28 sequence (Q13546 whole entry): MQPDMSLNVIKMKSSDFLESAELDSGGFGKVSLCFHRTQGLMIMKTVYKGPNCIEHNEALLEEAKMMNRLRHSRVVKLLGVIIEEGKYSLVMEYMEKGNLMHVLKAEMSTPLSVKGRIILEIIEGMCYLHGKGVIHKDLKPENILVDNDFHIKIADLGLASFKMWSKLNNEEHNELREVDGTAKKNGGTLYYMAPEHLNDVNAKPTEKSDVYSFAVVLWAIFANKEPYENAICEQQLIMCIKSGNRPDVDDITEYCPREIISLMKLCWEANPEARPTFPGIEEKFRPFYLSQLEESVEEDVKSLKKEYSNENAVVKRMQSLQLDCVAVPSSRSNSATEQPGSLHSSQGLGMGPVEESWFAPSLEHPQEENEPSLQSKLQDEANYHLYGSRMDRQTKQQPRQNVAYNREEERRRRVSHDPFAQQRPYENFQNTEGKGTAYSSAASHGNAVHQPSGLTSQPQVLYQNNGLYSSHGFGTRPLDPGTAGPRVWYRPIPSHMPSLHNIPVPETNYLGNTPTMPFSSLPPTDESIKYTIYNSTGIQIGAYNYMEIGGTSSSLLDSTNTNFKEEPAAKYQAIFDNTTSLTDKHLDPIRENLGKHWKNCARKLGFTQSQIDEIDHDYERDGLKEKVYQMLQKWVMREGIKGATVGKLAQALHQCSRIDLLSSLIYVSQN
T32 sequence (P22307 whole entry): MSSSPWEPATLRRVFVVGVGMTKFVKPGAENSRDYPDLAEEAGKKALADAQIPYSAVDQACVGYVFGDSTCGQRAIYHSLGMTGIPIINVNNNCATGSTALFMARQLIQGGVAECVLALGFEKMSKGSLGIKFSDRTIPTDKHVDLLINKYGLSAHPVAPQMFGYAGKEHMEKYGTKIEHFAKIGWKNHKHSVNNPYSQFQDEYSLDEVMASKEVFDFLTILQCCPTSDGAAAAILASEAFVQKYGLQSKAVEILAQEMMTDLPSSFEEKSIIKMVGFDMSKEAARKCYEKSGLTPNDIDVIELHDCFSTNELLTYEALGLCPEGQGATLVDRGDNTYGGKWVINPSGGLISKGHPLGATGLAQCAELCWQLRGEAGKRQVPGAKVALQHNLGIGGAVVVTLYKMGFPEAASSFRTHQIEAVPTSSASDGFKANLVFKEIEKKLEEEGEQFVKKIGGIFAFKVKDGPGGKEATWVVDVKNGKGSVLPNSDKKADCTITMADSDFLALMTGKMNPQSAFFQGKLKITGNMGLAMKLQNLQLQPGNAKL
T30 sequence (P62070 whole entry): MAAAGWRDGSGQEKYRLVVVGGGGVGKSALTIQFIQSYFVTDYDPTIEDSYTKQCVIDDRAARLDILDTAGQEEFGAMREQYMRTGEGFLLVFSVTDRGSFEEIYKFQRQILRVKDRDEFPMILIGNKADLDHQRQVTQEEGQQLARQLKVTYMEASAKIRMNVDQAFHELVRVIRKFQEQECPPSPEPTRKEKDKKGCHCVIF
T27 sequence (P26022 18-381): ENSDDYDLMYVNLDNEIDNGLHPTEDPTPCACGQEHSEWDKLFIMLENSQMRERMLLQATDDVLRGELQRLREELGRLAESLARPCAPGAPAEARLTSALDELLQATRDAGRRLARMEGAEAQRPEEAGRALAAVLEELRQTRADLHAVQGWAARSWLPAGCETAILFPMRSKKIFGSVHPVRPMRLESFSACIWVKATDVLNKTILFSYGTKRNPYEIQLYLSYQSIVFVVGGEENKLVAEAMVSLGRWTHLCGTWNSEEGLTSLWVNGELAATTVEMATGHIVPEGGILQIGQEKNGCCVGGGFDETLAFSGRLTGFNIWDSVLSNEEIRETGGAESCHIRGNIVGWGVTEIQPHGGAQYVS
T12 sequence (O75600 22-419): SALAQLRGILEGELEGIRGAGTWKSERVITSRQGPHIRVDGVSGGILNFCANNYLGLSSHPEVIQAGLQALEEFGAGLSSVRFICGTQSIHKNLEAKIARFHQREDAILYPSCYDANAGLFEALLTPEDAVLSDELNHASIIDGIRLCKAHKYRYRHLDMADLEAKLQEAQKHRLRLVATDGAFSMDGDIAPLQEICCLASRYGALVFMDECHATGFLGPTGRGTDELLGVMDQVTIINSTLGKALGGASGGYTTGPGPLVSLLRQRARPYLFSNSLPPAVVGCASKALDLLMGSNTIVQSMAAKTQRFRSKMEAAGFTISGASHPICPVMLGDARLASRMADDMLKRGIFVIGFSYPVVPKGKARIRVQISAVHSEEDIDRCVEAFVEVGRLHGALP
T35 sequence (Q15007 whole entry): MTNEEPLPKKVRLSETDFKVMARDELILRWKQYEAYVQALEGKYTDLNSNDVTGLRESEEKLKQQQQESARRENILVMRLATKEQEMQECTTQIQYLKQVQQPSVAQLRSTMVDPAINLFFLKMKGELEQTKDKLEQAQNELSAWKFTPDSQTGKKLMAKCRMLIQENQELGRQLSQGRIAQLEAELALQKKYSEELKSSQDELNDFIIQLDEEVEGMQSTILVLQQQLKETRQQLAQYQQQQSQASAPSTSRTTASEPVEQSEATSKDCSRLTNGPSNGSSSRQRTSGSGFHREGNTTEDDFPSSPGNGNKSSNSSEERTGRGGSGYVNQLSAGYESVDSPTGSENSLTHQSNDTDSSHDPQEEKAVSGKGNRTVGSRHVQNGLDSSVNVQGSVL
T3 sequence (Q9BRQ8 whole entry): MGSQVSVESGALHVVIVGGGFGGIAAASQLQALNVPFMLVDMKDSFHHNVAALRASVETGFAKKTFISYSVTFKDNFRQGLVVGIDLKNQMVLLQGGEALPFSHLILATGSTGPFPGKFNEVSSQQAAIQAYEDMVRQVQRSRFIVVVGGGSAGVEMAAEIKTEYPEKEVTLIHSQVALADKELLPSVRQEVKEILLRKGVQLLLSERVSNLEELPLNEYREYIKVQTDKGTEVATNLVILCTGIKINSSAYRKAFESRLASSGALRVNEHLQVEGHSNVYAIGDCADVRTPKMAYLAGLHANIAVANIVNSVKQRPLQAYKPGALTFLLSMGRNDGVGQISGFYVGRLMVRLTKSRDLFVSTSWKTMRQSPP
T21 sequence (Q13163 whole entry): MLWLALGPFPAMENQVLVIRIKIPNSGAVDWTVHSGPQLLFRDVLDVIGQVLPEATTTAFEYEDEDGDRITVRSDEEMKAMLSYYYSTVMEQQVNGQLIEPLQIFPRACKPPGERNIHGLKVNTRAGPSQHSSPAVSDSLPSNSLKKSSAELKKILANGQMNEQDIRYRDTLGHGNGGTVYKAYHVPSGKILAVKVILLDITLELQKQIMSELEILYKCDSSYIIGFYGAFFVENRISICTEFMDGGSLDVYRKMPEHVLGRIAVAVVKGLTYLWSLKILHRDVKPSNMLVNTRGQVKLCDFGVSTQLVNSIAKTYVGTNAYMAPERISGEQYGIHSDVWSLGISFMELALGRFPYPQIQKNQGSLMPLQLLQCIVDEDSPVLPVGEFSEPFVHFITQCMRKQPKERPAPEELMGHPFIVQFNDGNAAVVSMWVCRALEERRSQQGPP
T9 sequence (P38936 whole entry): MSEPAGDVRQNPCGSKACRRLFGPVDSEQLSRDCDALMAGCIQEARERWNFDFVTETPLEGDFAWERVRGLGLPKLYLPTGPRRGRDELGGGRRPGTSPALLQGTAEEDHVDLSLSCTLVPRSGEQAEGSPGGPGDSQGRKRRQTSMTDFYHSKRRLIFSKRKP

## CN1CCN(c2ccc(Nc3ncc4cc(C#N)c(=O)n(C5CCCC5)c4n3)cc2)CC1 [Compound 1, 8-cyclopentyl-2-((4-(4-methylpiperazin-1-yl)phenyl)amino)-7-oxo-7,8-dihydropyrido[2,3-d]pyrimidine-6-carbonitrile]
ACAA1
  Group (CETSA-MS thermal shift): Destabilization
ADAR
  Group (CETSA-MS thermal shift): Stabilization
AIFM2
  Group (CETSA-MS thermal shift): Destabilization
AP2M1
  Group (CETSA-MS thermal shift): Destabilization
APP
  Group (CETSA-MS thermal shift): Stabilization
BMP2K
  Group (CETSA-MS thermal shift): Stabilization
BOD1L1
  Group (CETSA-MS thermal shift): Destabilization
CCN1
  Group (CETSA-MS thermal shift): Stabilization
CDKN1A
  Group (CETSA-MS thermal shift): Destabilization
DNAJC13
  Group (CETSA-MS thermal shift): Stabilization
FASTKD5
  Group (CETSA-MS thermal shift): Stabilization
GCAT
  Group (CETSA-MS thermal shift): Stabilization
HNRNPA3
  Group (CETSA-MS thermal shift): Stabilization
HNRNPUL2
  Group (CETSA-MS thermal shift): Stabilization
HSPG2
  Group (CETSA-MS thermal shift): Stabilization
IGFBP4
  Group (CETSA-MS thermal shift): Stabilization
ILF3
  Group (CETSA-MS thermal shift): Stabilization
LAMA5
  Group (CETSA-MS thermal shift): Stabilization
LMAN2
  Group (CETSA-MS thermal shift): Stabilization
LTBP2
  Group (CETSA-MS thermal shift): Stabilization
MAP2K5
  Group (CETSA-MS thermal shift): Destabilization
MRC2
  Group (CETSA-MS thermal shift): Stabilization
NAPG
  Group (CETSA-MS thermal shift): Stabilization
PIK3C3
  Group (CETSA-MS thermal shift): Stabilization
PIP4P2
  Group (CETSA-MS thermal shift): Stabilization
PRPF4B
  Group (CETSA-MS thermal shift): Stabilization
PTX3
  Group (CETSA-MS thermal shift): Stabilization
RIPK 1
  Group (CETSA-MS thermal shift): Stabilization
RNF5
  Group (CETSA-MS thermal shift): Stabilization
RRAS2
  Group (CETSA-MS thermal shift): Stabilization
RSF1
  Group (CETSA-MS thermal shift): Stabilization
SCP2
  Group (CETSA-MS thermal shift): Destabilization
SMAD1
  Group (CETSA-MS thermal shift): Destabilization
SMU1
  Group (CETSA-MS thermal shift): Stabilization
WTAP
  Group (CETSA-MS thermal shift): Stabilization
ZNF608
  Group (CETSA-MS thermal shift): Destabilization
